The values that follow come from patent US7632811B2, “Analogs of parathyroid hormone” (Societe de Conseils de Recherches et D'Applications …, priority 1995, dated 2009).

Non-standard residues stand in square brackets, D forms with d. Residues, ends and D or L forms follow the SMILES beside them. Cha = N[C@@H](CC1CCCCC1)C(=O)O; Nle = CCCC[C@H](N)C(=O)O; Aib = CC(C)(N)C(=O)O

The assay has as its target T1, PTH receptor present on SaOS-2 (human osteosarcoma cells) (Homo sapiens, UniProt Q03431).
T1 construct: host or cells: SaOS-2 human osteosarcoma cells (intact, confluent monolayers)
T1 sequence (Q03431 27-593): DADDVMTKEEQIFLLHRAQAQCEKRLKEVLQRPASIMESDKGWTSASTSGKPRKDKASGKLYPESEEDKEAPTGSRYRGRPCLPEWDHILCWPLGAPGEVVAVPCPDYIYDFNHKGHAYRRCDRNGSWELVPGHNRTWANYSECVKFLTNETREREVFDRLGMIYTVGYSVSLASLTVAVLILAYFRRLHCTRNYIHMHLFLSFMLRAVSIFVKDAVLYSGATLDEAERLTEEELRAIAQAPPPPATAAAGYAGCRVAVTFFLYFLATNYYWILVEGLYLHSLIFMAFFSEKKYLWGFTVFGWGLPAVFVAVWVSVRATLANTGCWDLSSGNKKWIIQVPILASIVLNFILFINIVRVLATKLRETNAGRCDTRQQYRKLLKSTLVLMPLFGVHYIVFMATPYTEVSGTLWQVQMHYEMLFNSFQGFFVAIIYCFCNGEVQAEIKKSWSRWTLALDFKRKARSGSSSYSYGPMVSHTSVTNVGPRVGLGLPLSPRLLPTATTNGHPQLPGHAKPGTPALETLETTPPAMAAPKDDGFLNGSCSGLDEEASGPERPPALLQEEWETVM
In words: Binding to PTH receptor on SaOS-2 cells (competition with mono-125I-[Nle8,18,Tyr34(3-125I)]bPTH(1-34)NH2). The note with it: Table I, 2 hrs at room temperature, read-out: Kd (half maximal inhibition of binding of mono-125I-[Nle8,18, Tyr34(3-125I)]bPTH(1-34)NH2). As to the method:
A. Binding to PTH Receptor
The peptides of the invention were tested for their ability to bind to the PTH receptor present on SaOS-2 (human osteosarcoma cells). SaOS-2 cells (American Type Culture Collection, Rockville, Md.; ATCC #HTB 85) were maintained in RPMI 1640 medium (Sigma, St. Louis, Mo.) supplemented with 10% fetal bovine serum (FBS) and 2 mM glutamine at 37EC in a humidified atmosphere of 5% CO2 in air. The medium was changed every three or four days, and the cells were subcultured every week by trypsinization.
SaOS-2 cells were maintained for four days until they had reached confluence. The medium was replaced with 5% FBS in RPMI 1640 medium and incubated for 2 hrs at room temperature with 10×10^4 cpm mono-^125I-[Nle^8,18, Tyr^34(3-^125I)]bPTH(1-34)NH2 in the presence of a competing peptides of the invention at various concentrations between 10^−11 M to 10^−4 M. The cells were washed four times with ice-cold PBS and lysed with 0.1 M NaOH, and the radioactivity associated with the cells was counted in a scintillation counter. Synthesis of mono-^125I-[Nle^8,18, Tyr^34(3-^125I)]bPTH(1-34)NH2 was carried out as described in Goldman, M. E., et al., Endocrinol., 123:1468 (1988).
The binding assay was conducted with various peptides of the invention, and the Kd value (half maximal inhibition of binding of mono-^125I-[Nle^8,18, Tyr^34(3-^125I)]bPTH(1-34)NH2) for each peptide was calculated.

Broadly, the Kd is a measure of binding affinity in units of concentration. In the case of `CC[C@H](C)[C@H](NC(=O)[C@H](CCC(=O)O)NC(=O)[C@H](CO)NC(=O)[C@@H](NC(=O)[C@@H](N)CO)C(C)C)C(=O)N[C@@H](CCC(N)=O)C(=O)N[C@@H](CC1CCCCC1)C(=O)N[C@@H](CCSC)C(=O)N[C@@H](Cc1c[nH]cn1)C(=O)N[C@@H](CC(N)=O)C(=O)N[C@@H](CC1CCCCC1)C(=O)NCC(=O)N[C@@H](CCCCN)C(=O)N[C@@H](Cc1c[nH]cn1)C(=O)N[C@@H](CC(C)C)C(=O)NC(C)(C)C(=O)N[C@@H](CO)C(=O)N[C@@H](CCSC)C(=O)N[C@@H](CCC(=O)O)C(=O)N[C@@H](CCCNC(=N)N)C(=O)N[C@H](C(=O)N[C@@H](CCC(=O)O)C(=O)N[C@@H](Cc1c[nH]c2ccccc12)C(=O)N[C@@H](CC(C)C)C(=O)N[C@@H](CCCNC(=N)N)C(=O)N[C@@H](CCCCN)C(=O)N[C@@H](CCCCN)C(=O)N[C@@H](CC(C)C)C(=O)N[C@@H](CCC(N)=O)C(=O)N[C@@H](CC(=O)O)C(=O)N[C@H](C(=O)N[C@@H](Cc1c[nH]cn1)C(=O)N[C@@H](CC(N)=O)C(=O)N[C@@H](Cc1ccccc1)C(N)=O)C(C)C)C(C)C` [[Cha^7,11, Aib^16]hPTH(1-34)NH2] (H-SVSEIQ[Cha]MHN[Cha]GKHL[Aib]SMERVEWLRKKLQDVHNF-NH2), the Kd is 4 nM.
As for `CC[C@H](C)[C@H](NC(=O)[C@H](CCC(=O)O)NC(=O)[C@H](CO)NC(=O)[C@@H](NC(=O)[C@@H](N)CO)C(C)C)C(=O)N[C@@H](CCC(N)=O)C(=O)N[C@@H](CC1CCCCC1)C(=O)N[C@@H](CCSC)C(=O)N[C@@H](Cc1c[nH]cn1)C(=O)N[C@@H](CC(N)=O)C(=O)N[C@@H](CC1CCCCC1)C(=O)NCC(=O)N[C@@H](CCCCN)C(=O)N[C@@H](Cc1c[nH]cn1)C(=O)N[C@@H](CC(C)C)C(=O)N[C@@H](CC(N)=O)C(=O)N[C@@H](CO)C(=O)N[C@@H](CCSC)C(=O)NC(C)(C)C(=O)N[C@@H](CCCNC(=N)N)C(=O)N[C@H](C(=O)N[C@@H](CCC(=O)O)C(=O)N[C@@H](Cc1c[nH]c2ccccc12)C(=O)N[C@@H](CC(C)C)C(=O)N[C@@H](CCCNC(=N)N)C(=O)N[C@@H](CCCCN)C(=O)N[C@@H](CCCCN)C(=O)N[C@@H](CC(C)C)C(=O)N[C@@H](CCC(N)=O)C(=O)N[C@@H](CCCCN)C(=O)N[C@H](C(=O)N[C@@H](Cc1c[nH]cn1)C(=O)N[C@@H](CC(N)=O)C(=O)N[C@@H](Cc1ccccc1)C(N)=O)C(C)C)C(C)C` [[Cha^7,11, Aib^19, Lys^30]hPTH(1-34)NH2] (H-SVSEIQ[Cha]MHN[Cha]GKHLNSM[Aib]RVEWLRKKLQKVHNF-NH2), the Kd turned out to be 4 nM.
As for `CC[C@H](C)[C@H](NC(=O)[C@H](CCC(=O)O)NC(=O)[C@H](CO)NC(=O)[C@@H](NC(=O)[C@@H](N)CO)C(C)C)C(=O)N[C@@H](CCC(N)=O)C(=O)N[C@@H](CC1CCCCC1)C(=O)N[C@@H](CCSC)C(=O)N[C@@H](Cc1c[nH]cn1)C(=O)N[C@@H](CC(N)=O)C(=O)N[C@@H](CC1CCCCC1)C(=O)NCC(=O)N[C@@H](CCCCN)C(=O)N[C@@H](Cc1c[nH]cn1)C(=O)N[C@@H](CC(C)C)C(=O)N[C@@H](CC(N)=O)C(=O)N[C@@H](CO)C(=O)N[C@@H](CCSC)C(=O)NC(C)(C)C(=O)N[C@@H](CCCNC(=N)N)C(=O)N[C@H](C(=O)N[C@@H](CCC(=O)O)C(=O)N[C@@H](Cc1c[nH]c2ccccc12)C(=O)N[C@@H](CC(C)C)C(=O)N[C@@H](CCCNC(=N)N)C(=O)N[C@@H](CCCCN)C(=O)N[C@@H](CCCCN)C(=O)N[C@@H](CC(C)C)C(=O)N[C@@H](CCC(N)=O)C(=O)N[C@@H](CC(=O)O)C(=O)N[C@H](C(=O)N[C@@H](Cc1c[nH]cn1)C(=O)N[C@@H](CC(N)=O)C(=O)N[C@@H](Cc1ccccc1)C(N)=O)C(C)C)C(C)C` [[Cha^7,11, Aib^19]hPTH(1-34)NH2] (H-SVSEIQ[Cha]MHN[Cha]GKHLNSM[Aib]RVEWLRKKLQDVHNF-NH2), the Kd was 7 nM.
`CCCC[C@H](NC(=O)[C@H](CC(=O)O)NC(=O)[C@H](CCC(N)=O)NC(=O)[C@H](CC(C)C)NC(=O)[C@H](CCCCN)NC(=O)[C@H](CCCCN)NC(=O)[C@H](CCCNC(=N)N)NC(=O)[C@H](CC(C)C)NC(=O)[C@H](Cc1c[nH]c2ccccc12)NC(=O)[C@H](CCC(=O)O)NC(=O)[C@@H](NC(=O)[C@H](CCCNC(=N)N)NC(=O)C(C)(C)NC(=O)[C@H](CCCC)NC(=O)[C@H](CO)NC(=O)C(C)(C)NC(=O)[C@H](CC(C)C)NC(=O)[C@H](Cc1c[nH]cn1)NC(=O)[C@H](CCCCN)NC(=O)CNC(=O)[C@H](CC1CCCCC1)NC(=O)[C@H](CC(N)=O)NC(=O)[C@H](Cc1c[nH]cn1)NC(=O)[C@H](CCCC)NC(=O)[C@H](CC1CCCCC1)NC(=O)[C@H](CCC(N)=O)NC(=O)[C@@H](NC(=O)[C@H](CCC(=O)O)NC(=O)[C@H](CO)NC(=O)[C@@H](NC(=O)[C@@H](N)CO)C(C)C)[C@@H](C)CC)C(C)C)C(=O)N[C@@H](Cc1c[nH]cn1)C(=O)N[C@@H](CC(N)=O)C(=O)N[C@@H](Cc1ccc(O)cc1)C(N)=O` [[Cha^7,11, Nle^8,18,31, Aib^16,19, Tyr^34]hPTH(1-34)NH2] (H-SVSEIQ[Cha][Nle]HN[Cha]GKHL[Aib]S[Nle][Aib]RVEWLRKKLQD[Nle]HNY-NH2): the Kd came to 40 nM.
Under `CCCC[C@H](NC(=O)[C@H](CC1CCCCC1)NC(=O)[C@H](CCC(N)=O)NC(=O)[C@@H](NC(=O)[C@H](CCC(=O)O)NC(=O)[C@H](CO)NC(=O)[C@@H](NC(=O)[C@@H](N)CO)C(C)C)[C@@H](C)CC)C(=O)N[C@@H](Cc1c[nH]cn1)C(=O)N[C@@H](CC(N)=O)C(=O)N[C@@H](CC1CCCCC1)C(=O)NCC(=O)N[C@@H](CCCCN)C(=O)N[C@@H](Cc1c[nH]cn1)C(=O)N[C@@H](CC(C)C)C(=O)NC(C)(C)C(=O)N[C@@H](CO)C(=O)N[C@@H](CCCC)C(=O)NC(C)(C)C(=O)N[C@@H](CCCNC(=N)N)C(=O)N[C@H](C(=O)N[C@@H](CCC(=O)O)C(=O)N[C@@H](Cc1c[nH]c2ccccc12)C(=O)N[C@@H](CC(C)C)C(=O)N[C@@H](CCCNC(=N)N)C(=O)N[C@@H](CCCCN)C(=O)N[C@@H](CCCCN)C(=O)N[C@@H](CC(C)C)C(=O)N[C@@H](CCC(N)=O)C(=O)N[C@@H](CC(=O)O)C(=O)N[C@H](C(=O)N[C@@H](Cc1c[nH]cn1)C(=O)N[C@@H](CC(N)=O)C(=O)N[C@@H](Cc1ccc(O)cc1)C(N)=O)C(C)C)C(C)C` [[Cha^7,11, Nle^8,18, Aib^16,19, Tyr^34]hPTH (1-34)NH2] (H-SVSEIQ[Cha][Nle]HN[Cha]GKHL[Aib]S[Nle][Aib]RVEWLRKKLQDVHNY-NH2) stands 5 nM; under `CCCC[C@H](NC(=O)[C@H](CO)NC(=O)[C@H](CC(N)=O)NC(=O)[C@H](CC(C)C)NC(=O)[C@H](Cc1c[nH]cn1)NC(=O)[C@H](CCCCN)NC(=O)CNC(=O)[C@H](CC1CCCCC1)NC(=O)[C@H](CC(N)=O)NC(=O)[C@H](Cc1c[nH]cn1)NC(=O)[C@H](CCCC)NC(=O)[C@H](CC1CCCCC1)NC(=O)[C@H](CCC(N)=O)NC(=O)[C@@H](NC(=O)[C@H](CCC(=O)O)NC(=O)[C@H](CO)NC(=O)[C@@H](NC(=O)[C@@H](N)CO)C(C)C)[C@@H](C)CC)C(=O)N[C@@H](CCC(=O)O)C(=O)N[C@@H](CCCNC(=N)N)C(=O)N[C@H](C(=O)N[C@@H](CCC(=O)O)C(=O)N[C@@H](Cc1c[nH]c2ccccc12)C(=O)N[C@@H](CC(C)C)C(=O)N[C@@H](CCCNC(=N)N)C(=O)N[C@@H](CCCCN)C(=O)N[C@@H](CCCCN)C(=O)N[C@@H](CC(C)C)C(=O)N[C@@H](CCC(N)=O)C(=O)N[C@@H](CC(=O)O)C(=O)N[C@H](C(=O)N[C@@H](Cc1c[nH]cn1)C(=O)N[C@@H](CC(N)=O)C(=O)NC(C)(C)C(N)=O)C(C)C)C(C)C` [[Cha^7,11, Nle^8,18, Aib^34]hPTH(1-34)NH2] (H-SVSEIQ[Cha][Nle]HN[Cha]GKHLNS[Nle]ERVEWLRKKLQDVHN[Aib]-NH2), 30 nM.
